Test results reported in patent US20220125877A1, “METHOD FOR TREATING COLORECTAL CANCER” (SUN YAT-SEN UNIVERSITY, priority 2019, published 2022).

Key:
[1] = system: KRAS mutation PDX tumor; assay: PDX model, tumor size and weight; type: in vivo, BALB/c nude mice; details: compared with KRAS wildtype tumor model; 200 mg/kg in water, 30 d, FIG. 7
Method: Use of the PDX model: tumor tissues from the clinical KRAS wildtype and mutation CRC patients were taken, the tumor cells were cultured with a digestion process; after identifying the KRAS mutation, the tumor cells were planted in an axillary fossa area of nude mice.
1) Collection of patients' tumor specimens: cancer tissues with non-necrotic edges were taken from specimens obtained after excision, and soaked into a PRMI1640 culture solution containing 5% fetal calf serum, 1×penicillin and streptomycin double-antibodies, and then transported at 4° C.;
2) the tumor tissues were cut into small pieces having a size of about 2×2×2 mm on a super clean bench, and cleaned for 3 times with the above culture solution to remove extravasated blood; […]
7) when the transplanted tumor grew to 100-200 mm^3, the nude mice were administered intragastrically everyday at 9:00 a.m. for consecutive 28 d. […] The size of the transplanted tumor was measured everyday, volume (mm^3)=[length×width^2]/2;
8) the nude mice were killed 30 d layer, and tumor tissues were taken, shoot, measured, embedded and sliced.
200 mg/kg (equivalent to human 1000 mg) metformin was dissolved into water, and respectively taken by KRAS wildtype and mutation animals; then the tumor size was measured; 30 d later, the tumor tissues were killed and weighed.

[2] = system: KRAS mutation CRC cells LoVo; assay: Apoptosis, Annexin V/PI double staining; type: cell-based, human; details: 2.5 mM, 5 mM and 10 mM, 24 h
Method: (§1) Annexin V/PI double staining was used on the KRAS wildtype cell SW48 and KRAS (G13D) mutation cells LoVo to detect the effect of metformin on the apoptosis of colorectal cancer cells.
(§2) 1) The cells were inoculated on a 6-well plate and subjected to adherence growth for 12 h, starvation treatment over the night, and treated with the addition of an agent for 24 h, then the cells were digested by EDTA-free trypsin and washed for once with PBS without immobilization.
(§3) 2) The cells were resuspended with the addition of 300 μl Binding Buffer, then 3 μl Annexin V-FITC and 3 μl Propidium Iodide (PI) were added and mixed well for incubation for 30 min in the dark at room temperature, then the cells were determined by a flow cytometry.
(§4) 3) Flow cytometry detection of antibodies: apoptosis kit (A211-02) was purchased from KeyGEN; the detection kit (558662) for cell cycle PI simple staining was purchased from BD company.

[3] = system: KRAS wildtype CRC cells SW48; assay: Apoptosis, Annexin V/PI double staining; type: cell-based, human; details: 2.5 mM, 5 mM and 10 mM, 24 h
Method: as §1, §2, §3, §4

[4] = system: SW48 KRAS (G13D) cell line; assay: Proliferation / cell cycle in CRISPR/Cas9 KRAS (G13D) cells; type: cell-based, human; details: relative to SW48, FIG. 8E
Method: 1) The cells were inoculated onto a 6-well plate, and subjected to adherence growth for 12 h, then starvation treatment over the night, and treated with the addition of an agent for 24 h, then the cells were digested and washed for 3 times with PBS and centrifuged to discard supernatant; −20° C. pre-cooled 70% ethanol was added dropwise, and the cells were mixed well by vortex, and immobilized over the night at −20° C.

[5] = system: ERK and AKT signaling pathways of KRAS mutation CRC cells in PDX tumor tissues; assay: Western blot of PDX tumor tissues; type: in vivo, BALB/c nude mice; details: FIG. 9F
Source text: (2) Tumor tissues from PDX animals were taken and homogenated to extract protein for WB.

[6] = system: colorectal cancer cells (LoVo, SW48) with altered MATE1; assay: Proliferation with MATE1 over-expressed on LoVo or interfered on SW48; type: cell-based, human; details: FIGS. 12E-F

In the case of CN(C)C(=N)N=C(N)N [metformin], the tumor size [1] is reported as “obviously inhibit”, the tumor weight [1] is reported as “obviously inhibit” and the apoptosis [2] is reported as “do not accelerate the apoptosis”. The apoptosis [3] was “do not accelerate the apoptosis”, the “inhibiting effect on proliferation of tumor cells with cell cycle after KRAS (G13D) mutation” value [4] was “enhances the inhibiting effect” and the “ERK and AKT signaling pathways in PDX tumor tissues” value [5] was “inhibits”. For the same molecule, the “inhibiting effect on proliferation with down-regulated expression of MATE1” value [6] was “accelerating the inhibiting effect”.
